Measured values from publication PMC11284796, “Structure–Activity Relationship Studies of Aryl Sulfoxides as Reversible Monoacylglycerol Lipase Inhibitors” (Journal of Medicinal Chemistry, 2024).
Entries after “also recorded” stand apart in the source; their conditions may differ.

Legend:
[1] = system: mice; set-up: method as in PMID 38052772; conditions: listed as LEI-515; cited from earlier work
[2] = system: mice; set-up: method as in PMID 38052772; conditions: listed as LEI-515; cited from earlier work; remark: listed apart in the source
[3] = Liver S9 stability assay; format: in vitro ADME; conditions: mouse, liver S9 fraction
Description: The compound was incubated with liver S9 fraction and the amount of remaining unmetabolized compound was determined with liquid chromatography–mass spectrometry/mass spectrometry (LC-MS/MS) in a time-dependent manner. The results are presented as intrinsic clearance (Clint), which is calculated as V × 0.693/t1/2 (μL/min/mg) in which V is the volume of incubation in μL per mg protein and t1/2 is the measured half-life in min. […] This is not surprising, because the compound has high lipophilicity (calculated octanol–water partition coefficient (cLog P) of 4.9) and contains a potential metabolically labile ester functionality. Since it is well-known that reducing lipophilicity may increase metabolic stability, several analogues (compound ±56–±60) were synthesized in which phenyl ring A was replaced with different pyridyls (compound ±56–±59) or in which the ethyl ester was substituted with a more polar group (compound ±60). […] The metabolic stability of these compounds was, however, not improved (Table 7). […] To test this hypothesis, compound ±61 was synthesized in which the ester moiety was replaced by a metabolically stable ether.
The rate of metabolism was assessed by incubation at 37 °C, pH 7.4 with mouse liver S9 fraction (1 mg protein/mL) supplemented with 5 mM NADP, 25 mM G6P, and 25 U/ml G6PD. The concentration of the initial substrate is 1 μM. Substrate depletion over a time course was measured by LC-MS/MS following protein precipitation. Amitryptilin (2.5 μM in ACN) was used as an internal standard. The ln peak area ratio (compound peak area/internal standard peak area) is plotted against time and the gradient of the line is determined. The following equations were used to calculate the intrinsic clearance:
Elimination rate constant (k) = (-gradient); half-life (t1/2, min) = 0.693/k; V (μL/mg) = volume of incubation (μL)/protein in the incubation (mg); intrinsic clearance (Clint, μL/min/mg) = V × 0.693/t1/2.

[4] = system: 2-AG levels; set-up: method as in PMID 38052772; conditions: cited from earlier work
[5] = system: 2-AG levels; set-up: method as in PMID 38052772; conditions: cited from earlier work; remark: listed apart in the source
[6] = system: mice; set-up: method as in PMID 38052772; conditions: listed as LEI-515; cited from earlier work; remark: listed apart in the source
[7] = system: MAGL; set-up: method as in PMID 20729846, PMID 20855465; conditions: cited from earlier work

| SMILES | chemotherapy-induced neuropathic pain in mice [1] | central nervous system adverse effects or physical dependence [2] | microsomal CLint at 1 μM ([3]; pH 7.4, mouse liver S9 fraction 1 mg protein/mL, 1 μM substrate, 37 °C, pH 7.4) [µL/min/mg] | microsomal CLint at 1 μM ([3]; pH 7.4, supplementary csv) [µL/min/mg] | 2-AG levels in live cells [4] | 2-AG levels in peripheral mouse organs in vivo [5] | 2-AG levels in the brain ([5]; mouse, oral administration) | 2-AG levels in mouse colon and lung ([5]; oral administration) | inflammation in an acute liver injury mouse model [6] | effects of chronic exposure [7] |
| --- | --- | --- | --- | --- | --- | --- | --- | --- | --- | --- |
| CCC(F)(F)C(=O)C[S+]([O-])c1ccc(C(=O)N2CCN(c3cccc(Cl)c3)[C@@H](C)[C@@H]2C)cc1Cl (mixture of isomers) [±73, 1-((2-Chloro-4-(4-(3-chlorophenyl)-trans-2,3-dimethylpiperazine-1-carbonyl)phenyl)sulfinyl)-3,3-difluoropentan-2-one] | suppressed chemotherapy-induced neuropathic pain; also recorded: suppress chemotherapy-induced neuropathic pain | without inducing central nervous system adverse effects or physical dependence; also recorded: did not induce central nervous system (CNS) adverse effects or physical dependence | 30 | 30 | increased | increased | not in the brain | increased | reduced inflammation | – |
| O=C(Oc1ccc([N+](=O)[O-])cc1)N1CCC(C(O)(c2ccc3c(c2)OCO3)c2ccc3c(c2)OCO3)CC1 [JZL184] | – | – | – | – | – | – | – | – | – | pharmacological tolerance, development of physical dependence, impaired synaptic plasticity, and receptor desensitization in the nervous system |
